This experiment deals with human p110β. Put plainly: Transcreener ADP formation, human p110β with icSH2 of human p85α, p85β, p55γ. The settings on record: icSH2 from p85α, p85β or p55γ; 10 μM pY2; Figure 4A. The format is biochemical. As to the method: Figure 4 cSH2 Is Important for p110β Inhibition In Vitro and in Cells (A) Kinase activity of human p110β and icSH2 wild-type constructs from three human regulatory subunits (p85α, p85β, and p55γ) in the absence and presence of 10 μM PDGFR pY2 (y axis as in Figure 1B). EC50s for wild-type and icSH2 tyrosine mutants, in the absence and presence of 10 μM PDGF pY2, are shown. (B) Western blots of HEK cells transiently expressing wild-type and mutant human p110β/p85α. The membrane was probed with antibodies against PKB, pPKB (pSer473), myc (p110β), FLAG (p85α), and actin. Bar graphs show mean ± SEM (n = 3) of PKB phosphorylation level normalized to wild-type p110β/p85α (WT). The position of the three mutations is mapped on the p110β/p85β structure. […]
The lipid kinase activity was determined using the Transcreener ADP2 FP Assay (BellBrook Labs, Madison, WI) according to manufacturer‟s specifications. This non-radioactive assay measures activity by quantitating the amount of ADP formed. The ADP formed by PI3K competes with fluorescent ADP tracer for binding to an anti-ADP antibody, thereby decreasing fluorescence polarization. […]

Square brackets hold non-standard residues; d marks the D form. Ends that are not written are not given here. pY = N[C@@H](Cc1ccc(OP(=O)(O)O)cc1)C(=O)O

As to “ESDGG[pY]MDMSKDESID[pY]VPMLDMKGDIKYADIE [pY2, bis-phosphopeptide (PDGFR 735–767, with pY740 and pY751)]”, the “effect of pY2 on activity of human p110β bound to icSH2” value was “significantly stimulated the activity”.

The record behind these values is article PMC3670040, “Structure of Lipid Kinase p110β/p85β Elucidates an Unusual SH2-Domain-Mediated Inhibitory Mechanism” (Molecular Cell, 2011).
